Reference: patent US11965039B2, “Compstatin analogues and their medical uses” (priority 2018, dated 2024)
Read-outs that look alike come from different tables or passages of the source. Starred links: 1 amine or outer side, 2 acyl side, 3 side chain; linkers in the order of their positions; H or OH if unused. Positions of bridges follow the written chain, without caps; N, C: chain ends. Non-standard residues stand in square brackets, D forms with d. Residues, ends and D or L forms follow the SMILES beside them. Groups on a side chain read outwards from the residue. *: point of attachment. Trp(1-Me) = Cn1cc(C[C@H](N)C(=O)O)c2ccccc21; C16 diacid = O=C(O)CCCCCCCCCCCCCCC(=O)*; γGlu = O=C(O)[C@H](CCC(=O)[*:2])N[*:1]; AEEA = NCCOCCOCC(=O)O; Sar = CNCC(=O)O

Columns and labels:
[1] = test system: classical complement pathway; test: In vitro haemolysis assay (inhibition of classical complement pathway); assay type: cell-based, human; details: human serum, sensitized sheep red blood cells
Summary of the method: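 Compound dilutions preincubated 15 min at room temperature with diluted human serum (titrated per batch for 70-90% maximal haemolysis), then antibody-sensitized sheep RBC (10^7/well) added for 30 min at 37 °C in Tris/casein buffer, pH 7.4. Stopped with EDTA; haemolysis read at 405 nm; IC50 by 4PL fit.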

[2] = Solubility test at 10 mg/mL (visual inspection and light scattering); assay type: physicochemical; details: for Solubility, Condition 1: Acetate pH 4; for Solubility, Condition 2: Acetate pH 5; for Solubility, Condition 3: Phosphate pH 6; for Solubility, Condition 4: Phosphate pH 7; for Solubility, Condition 5: Phosphate pH 7.5
[3] = Table 3, given as upper bounds, read-out: IC50, inhibition of hemolysis

## CC[C@H](C)[C@@H]1NC(=O)[C@@H](NC(=O)[C@H](Cc2ccc(O)cc2)NC(C)=O)CSSC[C@@H](C(=O)N[C@H](C(=O)N[C@@H](CCC(=O)O)C(=O)N[C@@H](C)C(=O)NCC(=O)N[C@@H](CO)C(N)=O)[C@@H](C)O)NC(=O)[C@H](CCCNC(=N)N)NC(=O)[C@H](Cc2c[nH]cn2)NC(=O)[C@H](CCC(=O)O)NC(=O)CNC(=O)[C@H](Cc2c[nH]c3ccccc23)NC(=O)[C@H](CC(=O)O)NC(=O)[C@H](CCC(N)=O)NC(=O)[C@H](Cc2cn(C)c3ccccc23)NC1=O [Compound 68] (Ac-YCI[Trp(1-Me)]QDWGEHRCTEAGS-NH2; disulfide 2-12)
[1]; [3]
  IC50: < 100 nM
[2]
  Solubility, Condition 1: − (“−” denotes lack of solubility at the given condition, as UV absorbance at 340 nm exceeds 0.1 AU and/or it is visibly turbid or contains particles)
  Solubility, Condition 2: − (“−” denotes lack of solubility at the given condition, as UV absorbance at 340 nm exceeds 0.1 AU and/or it is visibly turbid or contains particles)
  Solubility, Condition 3: + (“+” denotes solubility at the given condition, as determined by UV absorbance being less than 0.1 AU at 340 nm and the sample being clear when manually inspected)
  Solubility, Condition 4: + (“+” denotes solubility at the given condition, as determined by UV absorbance being less than 0.1 AU at 340 nm and the sample being clear when manually inspected)
  Solubility, Condition 5: + (“+” denotes solubility at the given condition, as determined by UV absorbance being less than 0.1 AU at 340 nm and the sample being clear when manually inspected)

## CC[C@H](C)[C@H](NC(=O)[C@H](C)NC(=O)[C@H](CO)NC(=O)CNC(=O)[C@H](CCC(=O)O)NC(C)=O)C(=O)N[C@H]1CSSC[C@@H](C(=O)N(C)CC(=O)N[C@@H](CCC(=O)O)C(N)=O)NC(=O)[C@H](CCCNC(=N)N)NC(=O)[C@H](Cc2c[nH]cn2)NC(=O)[C@H](CCC(=O)O)NC(=O)CNC(=O)[C@H](Cc2c[nH]c3ccccc23)NC(=O)[C@H](CC(=O)O)NC(=O)[C@H](CCC(N)=O)NC(=O)[C@H](Cc2c[nH]c3ccccc23)NC(=O)[C@H]([C@@H](C)CC)NC1=O [Compound 28] (Ac-EGSAICIWQDWGEHRC[Sar]E-NH2; disulfide 6-16)
[1]; [3]
  IC50: < 100 nM
[1]; Table 4, valine 3 vs isoleucine 3 pairs, read-out: CP hemolysis IC50
  IC50: 88 nM
[2]
  Solubility, Condition 1: + (“+” denotes solubility at the given condition, as determined by UV absorbance being less than 0.1 AU at 340 nm and the sample being clear when manually inspected)
  Solubility, Condition 2: + (“+” denotes solubility at the given condition, as determined by UV absorbance being less than 0.1 AU at 340 nm and the sample being clear when manually inspected)
  Solubility, Condition 3: + (“+” denotes solubility at the given condition, as determined by UV absorbance being less than 0.1 AU at 340 nm and the sample being clear when manually inspected)
  Solubility, Condition 4: + (“+” denotes solubility at the given condition, as determined by UV absorbance being less than 0.1 AU at 340 nm and the sample being clear when manually inspected)
  Solubility, Condition 5: + (“+” denotes solubility at the given condition, as determined by UV absorbance being less than 0.1 AU at 340 nm and the sample being clear when manually inspected)

## CC[C@H](C)[C@@H]1NC(=O)[C@@H](NC(=O)[C@H](Cc2ccccc2)NC(=O)[C@H](C)NC(=O)[C@H](CO)NC(=O)CNC(=O)[C@H](CCC(=O)O)NC(C)=O)CSSC[C@@H](C(=O)N[C@H](C(=O)N[C@@H](CCC(=O)O)C(N)=O)[C@@H](C)O)NC(=O)[C@H](CCCNC(=N)N)NC(=O)[C@H](Cc2c[nH]cn2)NC(=O)[C@H](CCC(=O)O)NC(=O)CNC(=O)[C@H](Cc2c[nH]c3ccccc23)NC(=O)[C@H](CC(=O)O)NC(=O)[C@H](CCC(N)=O)NC(=O)[C@H](Cc2cn(C)c3ccccc23)NC1=O [Compound 57] (Ac-EGSAFCI[Trp(1-Me)]QDWGEHRCTE-NH2; disulfide 6-16)
[1]; [3]
  IC50: < 100 nM
[2]
  Solubility, Condition 1: − (“−” denotes lack of solubility at the given condition, as UV absorbance at 340 nm exceeds 0.1 AU and/or it is visibly turbid or contains particles)
  Solubility, Condition 2: − (“−” denotes lack of solubility at the given condition, as UV absorbance at 340 nm exceeds 0.1 AU and/or it is visibly turbid or contains particles)
  Solubility, Condition 3: + (“+” denotes solubility at the given condition, as determined by UV absorbance being less than 0.1 AU at 340 nm and the sample being clear when manually inspected)
  Solubility, Condition 4: + (“+” denotes solubility at the given condition, as determined by UV absorbance being less than 0.1 AU at 340 nm and the sample being clear when manually inspected)
  Solubility, Condition 5: + (“+” denotes solubility at the given condition, as determined by UV absorbance being less than 0.1 AU at 340 nm and the sample being clear when manually inspected)

## CC[C@H](C)[C@H](NC(C)=O)C(=O)N[C@H]1CSSC[C@@H](C(=O)N[C@@H](CCC(=O)O)C(N)=O)NC(=O)[C@H](CCCNC(=N)N)NC(=O)[C@H](Cc2c[nH]cn2)NC(=O)[C@H](CCC(=O)O)NC(=O)CNC(=O)[C@H](Cc2c[nH]c3ccccc23)NC(=O)[C@H](CC(=O)O)NC(=O)[C@H](CCC(N)=O)NC(=O)[C@H](Cc2c[nH]c3ccccc23)NC(=O)[C@H]([C@@H](C)CC)NC1=O [Compound 22] (Ac-ICIWQDWGEHRCE-NH2; disulfide 2-12)
[1]; [3]
  IC50: < 100 nM
[2]
  Solubility, Condition 1: + (“+” denotes solubility at the given condition, as determined by UV absorbance being less than 0.1 AU at 340 nm and the sample being clear when manually inspected)
  Solubility, Condition 2: − (“−” denotes lack of solubility at the given condition, as UV absorbance at 340 nm exceeds 0.1 AU and/or it is visibly turbid or contains particles)
  Solubility, Condition 3: − (“−” denotes lack of solubility at the given condition, as UV absorbance at 340 nm exceeds 0.1 AU and/or it is visibly turbid or contains particles)
  Solubility, Condition 4: + (“+” denotes solubility at the given condition, as determined by UV absorbance being less than 0.1 AU at 340 nm and the sample being clear when manually inspected)
  Solubility, Condition 5: + (“+” denotes solubility at the given condition, as determined by UV absorbance being less than 0.1 AU at 340 nm and the sample being clear when manually inspected)

## CC[C@H](C)[C@@H]1NC(=O)[C@@H](NC(=O)[C@H](Cc2ccccc2)NC(=O)[C@H](CCC(=O)O)NC(=O)[C@H](CO)NC(C)=O)CSSC[C@@H](C(=O)N(C)CC(=O)NCC(=O)N[C@@H](C)C(=O)N[C@@H](CCC(=O)O)C(=O)N[C@@H](CO)C(N)=O)NC(=O)[C@H](CCCNC(=N)N)NC(=O)[C@H](Cc2c[nH]cn2)NC(=O)[C@H](CCC(=O)O)NC(=O)CNC(=O)[C@H](Cc2c[nH]c3ccccc23)NC(=O)[C@H](CC(=O)O)NC(=O)[C@H](CCC(N)=O)NC(=O)[C@H](Cc2cn(C)c3ccccc23)NC1=O [Compound 74] (Ac-SEFCI[Trp(1-Me)]QDWGEHRC[Sar]GAES-NH2; disulfide 4-14)
[1]; [3]
  IC50: < 100 nM
[2]
  Solubility, Condition 1: − (“−” denotes lack of solubility at the given condition, as UV absorbance at 340 nm exceeds 0.1 AU and/or it is visibly turbid or contains particles)
  Solubility, Condition 2: + (“+” denotes solubility at the given condition, as determined by UV absorbance being less than 0.1 AU at 340 nm and the sample being clear when manually inspected)
  Solubility, Condition 3: + (“+” denotes solubility at the given condition, as determined by UV absorbance being less than 0.1 AU at 340 nm and the sample being clear when manually inspected)
  Solubility, Condition 4: + (“+” denotes solubility at the given condition, as determined by UV absorbance being less than 0.1 AU at 340 nm and the sample being clear when manually inspected)
  Solubility, Condition 5: + (“+” denotes solubility at the given condition, as determined by UV absorbance being less than 0.1 AU at 340 nm and the sample being clear when manually inspected)

## CC[C@H](C)[C@@H]1NC(=O)[C@@H](NC(=O)[C@H](Cc2ccc(O)cc2)NC(=O)[C@H](C)NC(=O)[C@H](CO)NC(=O)CNC(=O)[C@H](CCC(=O)O)NC(C)=O)CSSC[C@@H](C(=O)N(C)CC(=O)N[C@@H](CCC(=O)O)C(N)=O)NC(=O)[C@H](CCCCNC(=O)COCCOCCNC(=O)COCCOCCNC(=O)CC[C@H](NC(=O)CCCCCCCCCCCCCCC(=O)O)C(=O)O)NC(=O)[C@H](Cc2c[nH]cn2)NC(=O)[C@H](CCC(=O)O)NC(=O)CNC(=O)[C@H](Cc2c[nH]c3ccccc23)NC(=O)[C@H](CC(=O)O)NC(=O)[C@H](CCC(N)=O)NC(=O)[C@H](Cc2cn(C)c3ccccc23)NC1=O [Compound 103, Ac-EGSAYC(1)I[1-Me-Trp]QDWGEH-[K([15-carboxy-pentadecanoyl][γGlu][Peg3][Peg3])]-C(1)[Sar]E-NH2] (Ac-EGSAYCI[Trp(1-Me)]QDWGEHK([AEEA-AEEA-γGlu-C16 diacid])C[Sar]E-NH2; disulfide 6-16)
[1]; [3]
  IC50: < 100 nM
[2]
  Solubility, Condition 1: − (“−” denotes lack of solubility at the given condition, as UV absorbance at 340 nm exceeds 0.1 AU and/or it is visibly turbid or contains particles)
  Solubility, Condition 2: + (“+” denotes solubility at the given condition, as determined by UV absorbance being less than 0.1 AU at 340 nm and the sample being clear when manually inspected)
  Solubility, Condition 3: + (“+” denotes solubility at the given condition, as determined by UV absorbance being less than 0.1 AU at 340 nm and the sample being clear when manually inspected)
  Solubility, Condition 4: + (“+” denotes solubility at the given condition, as determined by UV absorbance being less than 0.1 AU at 340 nm and the sample being clear when manually inspected)
  Solubility, Condition 5: + (“+” denotes solubility at the given condition, as determined by UV absorbance being less than 0.1 AU at 340 nm and the sample being clear when manually inspected)
